Here are results for 14 compounds from US9809621B2, “Stable peptide-based PACE4 inhibitors” (SOCPRA SCIENCES SANTÉ ET HUMAINES S.E.C., priority 2011, dated 2017).

For one data set, the target named is T1, PACE4 (Homo sapiens, UniProt P29122).
T1 sequence (P29122 150-969): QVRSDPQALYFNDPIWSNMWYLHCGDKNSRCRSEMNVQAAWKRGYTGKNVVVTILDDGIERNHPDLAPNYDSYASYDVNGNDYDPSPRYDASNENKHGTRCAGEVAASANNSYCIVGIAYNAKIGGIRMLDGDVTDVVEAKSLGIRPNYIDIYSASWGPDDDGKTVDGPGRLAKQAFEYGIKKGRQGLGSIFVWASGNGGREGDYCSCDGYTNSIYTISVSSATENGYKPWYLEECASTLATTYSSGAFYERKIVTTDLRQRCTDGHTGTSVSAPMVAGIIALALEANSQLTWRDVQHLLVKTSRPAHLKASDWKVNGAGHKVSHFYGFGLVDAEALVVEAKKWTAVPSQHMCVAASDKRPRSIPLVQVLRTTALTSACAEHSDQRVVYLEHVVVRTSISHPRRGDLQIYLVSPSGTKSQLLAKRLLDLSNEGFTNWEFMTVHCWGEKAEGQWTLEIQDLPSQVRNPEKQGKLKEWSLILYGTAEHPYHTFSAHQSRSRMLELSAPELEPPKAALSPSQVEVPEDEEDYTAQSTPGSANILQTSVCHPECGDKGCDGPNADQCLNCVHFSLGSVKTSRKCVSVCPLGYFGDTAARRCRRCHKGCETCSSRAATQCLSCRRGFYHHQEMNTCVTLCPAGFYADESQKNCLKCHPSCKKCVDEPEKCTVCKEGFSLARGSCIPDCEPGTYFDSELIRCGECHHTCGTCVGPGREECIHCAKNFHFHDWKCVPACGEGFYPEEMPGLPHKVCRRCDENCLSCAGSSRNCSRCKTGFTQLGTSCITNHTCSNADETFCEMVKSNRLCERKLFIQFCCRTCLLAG
Put plainly: Inhibition constant (Ki) for PACE4. It counts as biochemical.

Data set [1] is described as follows: Stability following incubation with DU145 cells. It is filed as in vitro ADME, human. To be noted: human, DU145 cells, Table 1, read-out: Stability (% remaining after 48 h). As for the experimental part:
(§1) Multiple multi-Leu variants described in Table 1 were tested for their stability following incubation with DU145 cells, wherein their cellular stability and plasmatic half-life was measured.
Consequently, the multi-Leu peptide was further modified by the addition of amino acid analogues and/or with pseudo peptide bounds which increase the protection of the modified peptides from peptidase and protease degradation. Gains in stability were also measured in vitro in tumoral prostatic human cells (DU145). Increase in stability of the variants was also measured in vivo (FIG. 4).

A short description of data set [2]: Plasmatic half-life / degradation by plasmatic protease. It counts as in vitro ADME. The note with it: plasma. As for the experimental part: as §1
Stabilisation strategy for multi-Leu variants was also assessed in presence of plasmatic protease. 8 variants protected at their N-terminal leucines were tested in order to establish their level of degradation since it is expected that N-terminal degradation will occur in absence of any modifications other than acetylation. Variants tested with azaβ3-leucine at each individual position and “click” bonds between the different leucines of the N-terminal part of the variants were protected against degradation (see FIG. 3 for modifications).

Another data set concerns DU145 cells. To be noted: MTT; for Anti-proliferative activity in DU145 cells (in words): FIG. 1C, FIG. 7.
Another data set relates to LNCaP tumors. Put plainly: Intratumoral treatment of LNCaP tumors in immunosuppressed mice.
For another data set, the target named is furin (Homo sapiens, UniProt P09958). Put plainly: Inhibition constant (Ki) for furin. It counts as biochemical. The note with it: read-out: Ki for furin.
In the next data set the test system is LNCaP cells. The note with it: MTT.
Setting [3] is: Table 1, read-out: Ki for PACE4.

Values joined by “and” are separate entries in the source; they are usually repeats but may differ in a detail not shown here. Equal entries are not always repeated. Where two headings read alike, the source gives them in different places. Numbered stars: 1 amine (or outer) side, 2 acyl side, 3 side chain; on linkers, the order of the positions; unused ones are H or OH. Square brackets hold non-standard residues; d marks the D form. Peptide text beside a SMILES is read from it. * marks the point of attachment. X3 = CC(C)C[C@H](N[*:1])c1cn([C@@H](CC(C)C)C(=O)[*:2])nn1; X5 = CC(C)C/C(=C\C[C@H](CC(C)C)N[*:1])C(=O)[*:2]; NH(4-amidinobenzyl) = N=C(N)c1ccc(CN*)cc1; PEG8 = NCCOCCOCCOCCOCCOCCOCCOCCOCCC(=O)O; X1 = CC(C)CN(CC(=O)[*:2])N[*:1]; X4 = N=C(N)NCCCN(CC(N)=O)N*; Nle = CCCC[C@H](N)C(=O)O; X2 = N=C(N)NC/C=C/CN*

furin, sequence (P09958 108-794): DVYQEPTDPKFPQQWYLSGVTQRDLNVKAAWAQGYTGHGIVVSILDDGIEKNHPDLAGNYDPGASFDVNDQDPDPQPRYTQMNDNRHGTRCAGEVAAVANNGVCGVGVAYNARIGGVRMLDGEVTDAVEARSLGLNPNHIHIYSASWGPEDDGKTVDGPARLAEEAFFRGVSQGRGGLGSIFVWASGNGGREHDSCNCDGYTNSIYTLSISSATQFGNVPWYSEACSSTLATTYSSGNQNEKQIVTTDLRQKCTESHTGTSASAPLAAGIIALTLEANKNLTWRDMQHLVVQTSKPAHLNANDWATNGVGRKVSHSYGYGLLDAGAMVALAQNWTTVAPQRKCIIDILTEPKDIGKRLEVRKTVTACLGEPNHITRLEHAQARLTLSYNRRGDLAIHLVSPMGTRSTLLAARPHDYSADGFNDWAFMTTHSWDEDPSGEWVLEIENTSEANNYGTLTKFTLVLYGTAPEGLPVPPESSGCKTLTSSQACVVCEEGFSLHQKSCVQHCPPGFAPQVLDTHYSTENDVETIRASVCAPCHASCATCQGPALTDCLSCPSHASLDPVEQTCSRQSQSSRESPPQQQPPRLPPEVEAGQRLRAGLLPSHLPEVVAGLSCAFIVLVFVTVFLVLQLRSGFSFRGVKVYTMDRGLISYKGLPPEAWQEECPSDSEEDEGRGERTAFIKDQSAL

With “Ac-LLLSRVKR-NH2 [ML[Ser]-P5, Ac-LLLSRVKR-NH2]”, the affinity at PACE4 (Ki for PACE4, Table 1), expressed as Ki, was 11 nM. In addition, in data set [1], the fraction remaining (in general, what is left of the initial amount, in per cent) at 48 h turned out to be 88%. The half-life (usually the time in which the quantity being followed falls by half) in data set [2] (Table 1) was 2.32 ± 0.04 h.

Turning to `CC(=O)NN(CC(=O)N[C@@H](CC(C)C)C(=O)N[C@@H](CC(C)C)C(=O)N[C@@H](CC(C)C)C(=O)N[C@@H](CCCNC(=N)N)C(=O)N[C@H](C(=O)N[C@@H](CCCCN)C(=O)N[C@@H](CCCNC(=N)N)C(N)=O)C(C)C)CC(C)C` [ML[Azaβ3L]^P8], the share remaining at 48 h in data set [1] was 83%. The half-life in data set [2] (Table 1) was 2.5 ± 0.1 h.

Take `CC(=O)N[C@@H](CC(C)C)c1cn([C@@H](CC(C)C)C(=O)N[C@@H](CC(C)C)C(=O)N[C@@H](CC(C)C)C(=O)N[C@@H](CCCNC(=N)N)C(=O)N[C@H](C(=O)N[C@@H](CCCCN)C(=O)N[C@@H](CCCNC(=N)N)C(N)=O)C(C)C)nn1` [ML[click]^P8-P7, Ac-L[click]LLLRVKR-NH2] (Ac-[X3]LLRVKR-NH2): the Ki – broadly, the equilibrium dissociation constant of an inhibitor or competing ligand from its target – at PACE4 (setting [3]) turned out to be 37 nM. Further, the amount remaining at 48 h in data set [1] was 52%. The half-life in data set [2] (Table 1) is 4 ± 0.5 h.

In the case of `CCCC[C@H](NC(=O)[C@H](CC(C)C)NC(=O)[C@H](CC(C)C)NC(=O)[C@H](CC(C)C)NC(C)=O)C(=O)N[C@@H](CCCN=C(N)N)C(=O)N[C@H](C(=O)N[C@@H](CCCCN)C(=O)N[C@@H](CCCN=C(N)N)C(N)=O)C(C)C` [ML[Nle]^P5] (Ac-LLL[Nle]RVKR-NH2), the Ki on PACE4 (setting [3]) is 17 nM and 37 nM.

`CC(=O)N[C@@H](CC(C)C)C(=O)N[C@@H](CC(C)C)C(=O)N[C@@H](CC(C)C)C(=O)N[C@@H](CC(C)C)C(=O)N[C@@H](CCCNC(=N)N)C(=O)N[C@H](C(=O)N[C@@H](CCCCN)C(=O)NCc1ccc(C(=N)N)cc1)C(C)C` [ML-[AMBA]^P1, Ac-LLLLRVK-[AMBA]] (Ac-LLLLRVK-{NH(4-amidinobenzyl)}): in the data set with DU145 cells, the “Anti-proliferative activity in DU145 cells (in words)” value was “IC50 lower than the IC50 of the multi-Leu control”.

As for `CC(=O)N[C@H](CC(C)C)C(=O)N[C@@H](CC(C)C)C(=O)N[C@@H](CC(C)C)C(=O)N[C@@H](CC(C)C)C(=O)N[C@@H](CCCNC(=N)N)C(=O)N[C@H](C(=O)N[C@@H](CCCCN)C(=O)NCc1ccc(C(=N)N)cc1)C(C)C` [[D-Leu]^P8-ML-[AMBA]^P1, Ac-[D-Leu]-LLLRVK-[AMBA]] (Ac-[dL]LLLRVK-{NH(4-amidinobenzyl)}), the half-life in data set [2] (Table 1) and in data set [2] (Table 2) was 11.3 h each time. Also, the “Plasmatic concentration of PSA (in words)” value in the data set on LNCaP tumors (LNCaP tumors, FIG. 9) is listed as “decreased”. Besides, the “Appearance of excised tumors (in words)” value in the data set with LNCaP tumors (excised LNCaP tumors, FIG. 10A) is “smaller and have a white appearance”. For the same compound, the “Level of p27KIP in excised tumors (in words)” value in the data set on LNCaP tumors (immunocytochemistry, vs ML-peptide treated and untreated tumors, FIG. 10B) is given as “increased”. Further, the “Level of Ki67 in excised tumors (in words)” value in the data set on LNCaP tumors (immunocytochemistry, vs ML-peptide treated and untreated tumors, FIG. 10C) was “decreased”. Besides, the “Tumor volume (in words)” value in the data set with LNCaP tumors (intratumorally 50 μg/48 h, LNCaP tumors, immunosuppressed mice, FIG. 8) is recorded as “consistently the more potent compound”.

For `CC(=O)N[C@@H](CC(C)C)C(=O)N[C@@H](CC(C)C)C(=O)N[C@@H](CC(C)C)C(=O)N[C@@H](CC(C)C)C(=O)N[C@@H](CCCNC(=N)N)C(=O)N[C@H](C(=O)N[C@@H](CCCCN)C(=O)N[C@H](CCCNC(=N)N)C(N)=O)C(C)C` [Ac-LLLLRVK-[DArg]-NH2] (Ac-LLLLRVK[dR]-NH2), the results for the Ki at PACE4 (read-out: Ki for PACE4) and on furin were 1380 nM and 2600 nM, respectively. Besides, the “Anti-proliferative activity in DU145 cells (in words)” value in the data set on DU145 cells is on record as “poorly”. The IC50 came out at 439000 ± 82000 nM in the data set on DU145 cells (read-out: IC50 cellular proliferation DU145, FIG. 1B/1C) and 389000 ± 12000 nM with LNCaP cells (read-out: IC50 cellular proliferation LNCaP, FIG. 1B/1D). Also, the “Anti-proliferative activity in LNCaP cells (in words)” value in the data set with LNCaP cells (FIG. 1D) was “poorly”.

With `CC(=O)N[C@@H](CC(C)C)C(=O)N[C@@H](CC(C)C)c1cn([C@@H](CC(C)C)C(=O)N[C@@H](CC(C)C)C(=O)N[C@@H](CCCNC(=N)N)C(=O)N[C@H](C(=O)N[C@@H](CCCCN)C(=O)N[C@@H](CCCNC(=N)N)C(N)=O)C(C)C)nn1` [ML[click]^P7-P6, Ac-LL[click]LLRVKR-NH2] (Ac-L[X3]LRVKR-NH2), on PACE4 (setting [3]), the Ki amounted to 600 nM. Moreover, the half-life in data set [2] (Table 1) is 1 ± 0.2 h.

With `CC(=O)NCCOCCOCCOCCOCCOCCOCCOCCOCCC(=O)N[C@@H](CC(C)C)C(=O)N[C@@H](CC(C)C)C(=O)N[C@@H](CC(C)C)C(=O)N[C@@H](CC(C)C)C(=O)N[C@@H](CCCNC(=N)N)C(=O)N[C@H](C(=O)N[C@@H](CCCCN)C(=O)N[C@@H](CCCNC(=N)N)C(N)=O)C(C)C` [[H2N-PEG8]-ML, Ac-[HN-PEG8]-LLLLRVKR-NH2] (Ac-[PEG8]LLLLRVKR-NH2), the amount remaining at 48 h in data set [1] came out at 64%. In data set [2] (Table 1), this compound had a half-life of 1.3 ± 0.2 h.

On to `CCCC[C@H](NC(C)=O)C(=O)N[C@@H](CCCC)C(=O)N[C@@H](CC(C)C)C(=O)N[C@@H](CCCC)C(=O)N[C@@H](CCCN=C(N)N)C(=O)N[C@H](C(=O)N[C@@H](CCCCN)C(=O)N[C@@H](CCCN=C(N)N)C(N)=O)C(C)C` [ML[Nle]^P5-6-8, Ac-[Nle][Nle]L[Nle]RVKR-NH2], for which, on PACE4 (Ki for PACE4, Table 1), the affinity corresponds to a Ki of 85 nM. Further, the amount remaining at 48 h in data set [1] amounted to 41%.

For the compound `CC(=O)N[C@H](C/C=C(\CC(C)C)C(=O)N[C@@H](CC(C)C)C(=O)N[C@@H](CC(C)C)C(=O)N[C@@H](CCCNC(=N)N)C(=O)N[C@H](C(=O)N[C@@H](CCCCN)C(=O)N[C@@H](CCCNC(=N)N)C(N)=O)C(C)C)CC(C)C` [ML[c-ene]^P8-P7, Ac-L═LLLRVKR-NH2] (Ac-[X5]LLRVKR-NH2), the half-life in data set [2] (Table 1) was ~7.4 h.

`CC(=O)N[C@@H](CC(C)C)C(=O)N[C@@H](CC(C)C)C(=O)N[C@@H](CC(C)C)C(=O)N[C@@H](CC(C)C)C(=O)N[C@@H](CCCNC(=N)N)C(=O)N[C@H](C(=O)N[C@@H](CCCCN)C(=O)NN(CCCNC(=N)N)CC(N)=O)C(C)C` [ML[Azaβ3R]^P1, Ac-LLLLRVK[Azaβ3R]-NH2] (Ac-LLLLRVK-X4): on PACE4 (setting [3]), the Ki amounted to 460 nM. In addition, the half-life in data set [2] (Table 1) is 5.39 ± 0.08 h.

As for `CC(=O)NN(CC(=O)N[C@@H](CC(C)C)C(=O)N[C@@H](CC(C)C)C(=O)N[C@@H](CC(C)C)C(=O)N[C@@H](CCCNC(=N)N)C(=O)N[C@H](C(=O)N[C@@H](CCCCN)C(=O)NC/C=C/CNC(=N)N)C(C)C)CC(C)C` [[Azaβ3L]^P8-ML-[ΔR-CO2]^P1, Ac-[Azaβ3L]LLLRVKR-[ΔR-COO]] (Ac-[X1]LLLRVK-X2), the half-life in data set [2] (Table 1) and in data set [2] (Table 2) was 5.67 ± 0.07 h in each case. For the same compound, in the data set on DU145 cells, the “Anti-proliferative activity in DU145 cells (in words)” value was “IC50 lower than the IC50 of the multi-Leu control”.

Regarding `CCCC[C@H](NC(C)=O)C(=O)N[C@@H](CCCC)C(=O)N[C@@H](CCCC)C(=O)N[C@@H](CCCC)C(=O)N[C@@H](CCCNC(=N)N)C(=O)N[C@H](C(=O)N[C@@H](CCCCN)C(N)=O)C(C)C` [ML[Nleu]^P5-6-7-8, Ac-[Nle][Nle][Nle][Nle]RVK-NH2] (Ac-[Nle][Nle][Nle][Nle]RVK-NH2), the Ki at PACE4 (Ki for PACE4, Table 1) was 344 nM.
